Read-outs that look alike come from different tables or passages of the source.

By inhibition is commonly meant the percentage by which the read-out fell short of the control.

What all share (assay): SelectScreen Z-LYTE kinase activity assay (SI Table 6)
What all share (assay type): biochemical

In assay [1] the target is protein kinases of the Z-LYTE panel (Homo sapiens, UniProt P12931). In a few lines:
(§1)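 Single-point profiling, 1 μM 1938; LanthaScreen binding, Adapta or Z-LYTE read-outs; 133 protein + 7 lipid kinases.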

The target of assay [2] is protein kinases of the Z-LYTE panel (Homo sapiens, UniProt Q13464). In a few lines:
as §1

The target of assay [3] is protein kinases of the Z-LYTE panel (Homo sapiens, UniProt P51451). The method in brief: as §1
The target of assay [4] is protein kinases of the Z-LYTE panel (Homo sapiens, UniProt Q04912). In a few lines: as §1
For assay [5], the target named is protein kinases of the Z-LYTE panel (Homo sapiens, UniProt P07948). In a few lines: as §1
Assay [6] addresses protein kinases of the Z-LYTE panel (Homo sapiens, UniProt Q04759). In a few lines: as §1
The target in assay [7] is protein kinases of the Z-LYTE panel (Homo sapiens, UniProt Q13177). In a few lines: as §1
Assay [8] concerns the target T1, protein kinases of the Z-LYTE panel (Homo sapiens, UniProt O14920).
T1 sequence (O14920 1-756): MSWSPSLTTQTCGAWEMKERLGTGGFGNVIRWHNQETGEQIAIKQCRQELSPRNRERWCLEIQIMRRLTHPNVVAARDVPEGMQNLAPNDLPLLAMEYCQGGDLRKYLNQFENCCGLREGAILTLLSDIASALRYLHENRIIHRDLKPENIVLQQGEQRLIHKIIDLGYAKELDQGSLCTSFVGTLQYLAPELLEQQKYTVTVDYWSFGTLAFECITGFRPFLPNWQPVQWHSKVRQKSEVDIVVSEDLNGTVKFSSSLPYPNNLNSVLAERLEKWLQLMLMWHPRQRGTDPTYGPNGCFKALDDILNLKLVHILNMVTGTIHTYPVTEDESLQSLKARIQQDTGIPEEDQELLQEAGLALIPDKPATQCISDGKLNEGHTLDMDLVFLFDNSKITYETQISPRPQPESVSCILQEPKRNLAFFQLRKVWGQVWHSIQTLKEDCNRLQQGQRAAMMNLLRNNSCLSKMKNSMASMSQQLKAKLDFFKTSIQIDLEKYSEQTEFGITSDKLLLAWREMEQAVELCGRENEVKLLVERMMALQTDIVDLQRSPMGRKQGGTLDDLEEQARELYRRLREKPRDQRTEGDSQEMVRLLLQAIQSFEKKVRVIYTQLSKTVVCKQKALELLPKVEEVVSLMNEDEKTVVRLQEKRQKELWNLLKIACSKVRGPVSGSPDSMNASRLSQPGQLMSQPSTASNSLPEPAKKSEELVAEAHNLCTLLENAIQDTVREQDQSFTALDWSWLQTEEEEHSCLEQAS
In a few lines: as §1

Chain of protein kinases of the Z-LYTE panel (Homo sapiens, UniProt Q13464) (Q13464 whole entry): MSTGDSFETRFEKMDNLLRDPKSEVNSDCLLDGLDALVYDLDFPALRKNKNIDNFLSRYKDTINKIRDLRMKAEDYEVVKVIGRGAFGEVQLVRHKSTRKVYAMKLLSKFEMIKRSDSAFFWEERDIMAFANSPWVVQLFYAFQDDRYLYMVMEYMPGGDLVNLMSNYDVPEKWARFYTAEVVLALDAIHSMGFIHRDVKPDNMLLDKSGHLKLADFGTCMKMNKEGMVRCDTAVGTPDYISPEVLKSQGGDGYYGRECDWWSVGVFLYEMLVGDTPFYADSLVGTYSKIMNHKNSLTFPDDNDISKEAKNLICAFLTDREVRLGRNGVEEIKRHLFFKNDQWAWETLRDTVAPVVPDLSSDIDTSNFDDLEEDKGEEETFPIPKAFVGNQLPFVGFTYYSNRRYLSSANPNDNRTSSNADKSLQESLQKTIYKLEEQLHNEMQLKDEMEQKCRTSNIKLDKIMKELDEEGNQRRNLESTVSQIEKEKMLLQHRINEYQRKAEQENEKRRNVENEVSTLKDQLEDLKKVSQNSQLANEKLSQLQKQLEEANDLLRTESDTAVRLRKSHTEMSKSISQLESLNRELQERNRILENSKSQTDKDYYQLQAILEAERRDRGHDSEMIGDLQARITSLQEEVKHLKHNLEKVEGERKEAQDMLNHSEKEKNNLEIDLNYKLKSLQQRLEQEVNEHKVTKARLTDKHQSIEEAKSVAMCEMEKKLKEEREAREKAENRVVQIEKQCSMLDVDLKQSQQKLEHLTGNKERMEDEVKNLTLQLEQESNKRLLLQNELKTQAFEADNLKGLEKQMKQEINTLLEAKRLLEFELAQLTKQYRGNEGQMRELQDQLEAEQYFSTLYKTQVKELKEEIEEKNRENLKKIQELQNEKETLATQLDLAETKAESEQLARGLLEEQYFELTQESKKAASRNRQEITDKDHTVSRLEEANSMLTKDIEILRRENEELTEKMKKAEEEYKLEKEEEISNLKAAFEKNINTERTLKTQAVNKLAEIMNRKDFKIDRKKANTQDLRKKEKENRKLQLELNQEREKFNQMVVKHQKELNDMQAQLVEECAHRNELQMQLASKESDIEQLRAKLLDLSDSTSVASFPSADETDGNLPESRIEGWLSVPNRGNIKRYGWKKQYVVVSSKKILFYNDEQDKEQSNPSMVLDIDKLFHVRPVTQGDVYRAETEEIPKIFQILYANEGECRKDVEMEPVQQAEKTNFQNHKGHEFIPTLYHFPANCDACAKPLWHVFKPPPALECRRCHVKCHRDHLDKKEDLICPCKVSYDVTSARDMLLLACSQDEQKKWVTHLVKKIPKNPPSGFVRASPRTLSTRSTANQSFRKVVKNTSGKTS
Chain of protein kinases of the Z-LYTE panel (Homo sapiens, UniProt P07948) (P07948 whole entry): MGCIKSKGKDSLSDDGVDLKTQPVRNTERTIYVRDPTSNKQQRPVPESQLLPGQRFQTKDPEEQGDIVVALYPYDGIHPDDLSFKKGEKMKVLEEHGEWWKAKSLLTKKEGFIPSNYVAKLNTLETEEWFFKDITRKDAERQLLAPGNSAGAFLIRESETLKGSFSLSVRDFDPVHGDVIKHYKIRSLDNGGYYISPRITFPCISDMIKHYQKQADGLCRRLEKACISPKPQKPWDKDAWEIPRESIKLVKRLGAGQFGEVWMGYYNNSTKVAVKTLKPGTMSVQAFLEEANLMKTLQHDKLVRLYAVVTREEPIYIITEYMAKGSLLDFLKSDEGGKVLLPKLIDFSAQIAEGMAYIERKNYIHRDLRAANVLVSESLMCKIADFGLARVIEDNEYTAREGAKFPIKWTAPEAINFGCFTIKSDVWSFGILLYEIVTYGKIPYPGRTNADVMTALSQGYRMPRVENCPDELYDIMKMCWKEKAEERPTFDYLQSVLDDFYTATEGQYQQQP
Chain of protein kinases of the Z-LYTE panel (Homo sapiens, UniProt Q04759) (Q04759 whole entry): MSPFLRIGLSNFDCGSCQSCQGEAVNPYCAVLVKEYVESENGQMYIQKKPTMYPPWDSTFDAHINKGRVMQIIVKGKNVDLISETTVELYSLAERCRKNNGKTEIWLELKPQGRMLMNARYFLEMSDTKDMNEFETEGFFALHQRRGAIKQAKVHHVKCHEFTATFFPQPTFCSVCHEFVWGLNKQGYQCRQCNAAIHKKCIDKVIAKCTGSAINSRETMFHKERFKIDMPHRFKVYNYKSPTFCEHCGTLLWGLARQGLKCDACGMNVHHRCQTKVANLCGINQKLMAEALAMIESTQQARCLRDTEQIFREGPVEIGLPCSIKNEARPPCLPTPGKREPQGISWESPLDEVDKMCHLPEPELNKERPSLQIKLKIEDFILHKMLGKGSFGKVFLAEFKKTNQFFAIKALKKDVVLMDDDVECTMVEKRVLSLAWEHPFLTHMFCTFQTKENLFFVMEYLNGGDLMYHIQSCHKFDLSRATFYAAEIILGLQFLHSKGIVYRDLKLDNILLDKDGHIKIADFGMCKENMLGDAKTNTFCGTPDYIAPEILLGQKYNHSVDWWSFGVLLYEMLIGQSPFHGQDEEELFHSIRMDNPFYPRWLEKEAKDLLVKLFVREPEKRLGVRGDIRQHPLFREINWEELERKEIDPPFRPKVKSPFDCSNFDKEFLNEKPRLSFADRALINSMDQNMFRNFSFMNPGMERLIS
Chain of protein kinases of the Z-LYTE panel (Homo sapiens, UniProt P12931) (P12931 whole entry): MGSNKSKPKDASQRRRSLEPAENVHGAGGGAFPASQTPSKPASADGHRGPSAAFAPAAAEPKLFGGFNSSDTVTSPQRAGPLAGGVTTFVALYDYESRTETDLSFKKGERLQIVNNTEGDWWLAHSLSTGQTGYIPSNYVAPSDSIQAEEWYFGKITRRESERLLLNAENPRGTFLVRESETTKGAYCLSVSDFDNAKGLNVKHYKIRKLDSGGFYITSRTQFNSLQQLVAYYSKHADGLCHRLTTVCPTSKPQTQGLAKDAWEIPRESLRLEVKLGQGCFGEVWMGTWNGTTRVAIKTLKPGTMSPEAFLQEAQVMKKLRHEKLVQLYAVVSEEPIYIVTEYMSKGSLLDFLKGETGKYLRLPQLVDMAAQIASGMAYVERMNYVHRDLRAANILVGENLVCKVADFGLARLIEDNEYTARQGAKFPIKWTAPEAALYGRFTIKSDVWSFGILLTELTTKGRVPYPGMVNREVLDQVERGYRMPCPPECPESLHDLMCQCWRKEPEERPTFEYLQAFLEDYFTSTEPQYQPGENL
Chain of protein kinases of the Z-LYTE panel (Homo sapiens, UniProt Q04912) (Q04912 25-1400): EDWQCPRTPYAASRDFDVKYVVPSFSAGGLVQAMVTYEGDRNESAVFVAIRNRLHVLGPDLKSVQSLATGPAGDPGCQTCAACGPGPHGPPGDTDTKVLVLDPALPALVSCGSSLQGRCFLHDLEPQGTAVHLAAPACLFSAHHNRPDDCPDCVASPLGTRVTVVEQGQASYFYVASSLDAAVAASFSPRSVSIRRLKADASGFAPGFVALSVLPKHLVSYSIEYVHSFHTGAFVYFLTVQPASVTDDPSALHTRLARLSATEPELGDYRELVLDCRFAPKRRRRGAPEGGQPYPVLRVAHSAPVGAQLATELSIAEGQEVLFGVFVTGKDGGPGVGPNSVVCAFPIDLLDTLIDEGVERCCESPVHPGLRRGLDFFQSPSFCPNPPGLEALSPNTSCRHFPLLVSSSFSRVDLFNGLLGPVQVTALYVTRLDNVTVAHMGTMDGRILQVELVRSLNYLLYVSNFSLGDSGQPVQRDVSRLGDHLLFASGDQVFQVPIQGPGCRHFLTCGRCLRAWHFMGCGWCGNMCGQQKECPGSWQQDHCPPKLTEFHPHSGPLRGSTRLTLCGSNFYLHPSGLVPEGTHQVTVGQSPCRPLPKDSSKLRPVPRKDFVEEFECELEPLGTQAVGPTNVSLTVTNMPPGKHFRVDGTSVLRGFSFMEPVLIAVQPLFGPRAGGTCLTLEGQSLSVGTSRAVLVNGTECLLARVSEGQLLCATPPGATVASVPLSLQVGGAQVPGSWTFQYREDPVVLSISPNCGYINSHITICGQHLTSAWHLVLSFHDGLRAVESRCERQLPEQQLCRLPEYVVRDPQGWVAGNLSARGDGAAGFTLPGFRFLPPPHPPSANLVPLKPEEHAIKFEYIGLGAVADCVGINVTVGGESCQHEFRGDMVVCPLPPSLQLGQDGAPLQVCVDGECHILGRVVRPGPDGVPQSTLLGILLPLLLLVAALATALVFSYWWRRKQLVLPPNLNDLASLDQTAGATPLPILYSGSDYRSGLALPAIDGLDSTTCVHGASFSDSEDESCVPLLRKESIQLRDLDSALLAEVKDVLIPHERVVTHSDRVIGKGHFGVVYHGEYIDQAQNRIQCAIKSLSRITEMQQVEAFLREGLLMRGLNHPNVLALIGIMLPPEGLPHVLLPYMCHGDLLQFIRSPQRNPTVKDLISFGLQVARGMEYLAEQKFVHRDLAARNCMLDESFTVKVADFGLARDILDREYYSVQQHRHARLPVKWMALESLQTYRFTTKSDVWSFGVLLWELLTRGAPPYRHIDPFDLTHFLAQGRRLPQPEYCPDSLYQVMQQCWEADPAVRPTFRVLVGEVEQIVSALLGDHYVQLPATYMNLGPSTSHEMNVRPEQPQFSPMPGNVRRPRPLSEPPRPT
Chain of protein kinases of the Z-LYTE panel (Homo sapiens, UniProt P51451) (P51451 whole entry): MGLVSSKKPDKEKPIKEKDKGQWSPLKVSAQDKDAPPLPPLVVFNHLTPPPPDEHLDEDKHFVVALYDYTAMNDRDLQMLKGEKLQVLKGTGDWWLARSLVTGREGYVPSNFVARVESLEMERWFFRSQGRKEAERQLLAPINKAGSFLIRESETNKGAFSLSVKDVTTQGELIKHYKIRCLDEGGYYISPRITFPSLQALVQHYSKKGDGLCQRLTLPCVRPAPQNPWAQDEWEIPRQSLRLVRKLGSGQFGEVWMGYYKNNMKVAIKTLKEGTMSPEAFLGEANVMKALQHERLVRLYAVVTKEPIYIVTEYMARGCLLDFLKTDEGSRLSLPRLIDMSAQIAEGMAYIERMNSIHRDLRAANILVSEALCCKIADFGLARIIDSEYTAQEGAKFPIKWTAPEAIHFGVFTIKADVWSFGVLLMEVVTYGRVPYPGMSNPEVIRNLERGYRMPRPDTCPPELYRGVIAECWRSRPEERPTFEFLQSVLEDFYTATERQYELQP

In the case of `CCN1CCN(c2ccc(Nc3cc(Nc4cccc5c4N(C(C)=O)CC5)ccn3)cc2)CC1` [Compound 1938], the inhibition at 1 µM in assay [1] (read-out: % Inhibition Point 1) was 28%; in assay [1] (read-out: % Inhibition Point 2), 29%; in assay [1] (read-out: % Inhibition mean), 29%; in assay [2] (read-out: % Inhibition Point 1), 0.45%; in assay [2] (read-out: % Inhibition Point 2), 0.0147%; in assay [2] (read-out: % Inhibition mean), 0.233%. Further, the inhibition at 1 µM was 16% in assay [3] (read-out: % Inhibition Point 1); 6.35% in assay [3] (read-out: % Inhibition Point 2); 11% in assay [3] (read-out: % Inhibition mean); 8% in assay [4] (read-out: % Inhibition Point 1); 8.5% in assay [4] (read-out: % Inhibition Point 2); 8% in assay [4] (read-out: % Inhibition mean). Also, the inhibition at 1 µM in assay [5] (read-out: % Inhibition Point 1) was 11%; in assay [5] (read-out: % Inhibition Point 2) it was 9%; in assay [5] (read-out: % Inhibition mean), 10%; in assay [6] (read-out: % Inhibition Point 1), 12%; in assay [6] (read-out: % Inhibition Point 2) it was 6.62%; in assay [6] (read-out: % Inhibition mean), 9%. Also, the inhibition at 1 µM in assay [7] (read-out: % Inhibition Point 1) was 5%; in assay [7] (read-out: % Inhibition Point 2), 4.68%; in assay [7] (read-out: % Inhibition mean), 5%; in assay [8] (read-out: % Inhibition Point 1), 8.52%; in assay [8] (read-out: % Inhibition Point 2), 7%; in assay [8] (read-out: % Inhibition mean), 7.61%.

The record behind these values is publication PMC7614683, “A small molecule PI3Kα activator for cardioprotection and neuroregeneration” (Nature, 2023).
